Source: patent publication US10385034B2, “Flavonoid IL-17A inhibitors” (THE CLEVELAND CLINIC FOUNDATION, priority 2014, dated 2019)
“Also recorded” adds a separate entry of the source. Like-named read-outs stand apart in the source and are kept apart here.

Columns and labels:
A549 cells = experiment: IL-17A-induced CXCL1 (Groα) production, ELISA; type: cell-based, human; conditions: A549, IL-17 100 ng/ml, 24 h
Description: (§1) Reagents, cell culture and mice. Purified proteins of human IL-17A, human IL-17E (IL-25), human IL-17RA-Fc (extracellular domain 1-322 AA fused with Fc region of human IgG1 at the C-terminus), human IL-17RB-Fc (extracellular domain 1-289 AA fused with Fc region of human IgG1 at the C-terminus), human horseradish peroxidase (HRP)-conjugated IgG Fc secondary antibody were purchased from Sino Biological Inc. Human and mouse IL-17A and mouse IL-23 used for cell culture and animal injection were purchased from R&D Systems. Human mammary epithelial cells were maintained in Medium 171 plus mammary epithelial growth supplement (MEGS) purchased from Invitrogen, which contain bovine pituitary extract (BPE) (0.4% v/v), recombinant human insulin-like growth factor-I (1 μg/ml), hydrocortisone (0.5 μg/ml) and human epidermal growth factor (3 ng/ml). A549 cells were maintained in RPMI supplemented with 10% FCS and 100 U/ml penicillin and 100 μg/ml streptomycin. All mice were obtained from Jackson laboratory.
(§2) ELISA. Groα and IL-17A levels were assayed by ELISA kits (R&D systems) according to the manufacturer's instruction.

IL-17A-IL-17RA binding = target: T1, IL-17A-IL-17RA binding (Homo sapiens, UniProt Q96F46); experiment: IL-17A-IL-17RA binding assay (ELISA); conditions: for IC50: in vitro inhibition assay; for Inhibition of IL-17A-IL-17RA binding: serial dilutions of compound
T1 construct: human IL-17RA-Fc (extracellular domain 1-322 AA fused with Fc region of human IgG1 at the C-terminus); purchased Sino Biological Inc
T1 sequence (Q96F46 33-322): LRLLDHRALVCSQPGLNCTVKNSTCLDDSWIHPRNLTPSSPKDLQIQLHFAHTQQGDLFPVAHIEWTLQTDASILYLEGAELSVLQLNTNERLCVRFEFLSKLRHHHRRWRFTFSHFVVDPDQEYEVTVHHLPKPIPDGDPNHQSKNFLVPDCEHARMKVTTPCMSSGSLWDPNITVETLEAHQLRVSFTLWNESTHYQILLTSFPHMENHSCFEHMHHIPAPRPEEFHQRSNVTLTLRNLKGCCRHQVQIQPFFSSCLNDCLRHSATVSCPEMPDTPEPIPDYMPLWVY
Method: IL-17A-IL-17RA binding assay. ELISA plates were coated with human IL-17A or IL-17E (2 μg/ml in PBS). Human IL-17RA-Fc or human IL-17RB-Fc (150 ng/ml) were added and incubated for 1 h, followed by incubation with human HRP-conjugated anti human IgG Fc secondary antibody for 1 h. ELISA were finally developed using tetramethylbenzidine substrate.

[1] = tested on: IL-17F-induced gene expression; experiment: IL-17F-induced gene expression in epithelial cells; type: cell-based, human; conditions: data not shown
[2] = tested on: human mammary epithelial cells (HMEC); experiment: IL-17A-induced CXCL1 (Groα) production, ELISA; type: cell-based; conditions: IL-17 100 ng/ml, 24 h
Description: as §1, §2

[3] = target: T2, recombinant human IL-17RA ectodomain (Homo sapiens, UniProt Q96F46); experiment: Fluorescence binding measurement (fluorescence quenching); conditions: one-site total binding fit
T2 construct: The recombinant human IL-17RA ectodomain was expressed in baculovirus-infected Sf-9 cells; made in house; host or cells: baculovirus-infected Sf-9 cells
T2 sequence (Q96F46 33-320 limits assumed): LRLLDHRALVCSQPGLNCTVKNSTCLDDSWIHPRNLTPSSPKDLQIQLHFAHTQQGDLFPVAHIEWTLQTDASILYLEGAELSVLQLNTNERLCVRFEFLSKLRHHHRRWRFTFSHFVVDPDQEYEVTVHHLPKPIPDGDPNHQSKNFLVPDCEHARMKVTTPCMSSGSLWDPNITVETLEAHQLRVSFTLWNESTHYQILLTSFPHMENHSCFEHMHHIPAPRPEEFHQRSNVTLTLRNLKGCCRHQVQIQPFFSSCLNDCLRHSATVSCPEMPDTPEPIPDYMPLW
Method: Fluorescence binding measurement. The recombinant human IL-17RA ectodomain was expressed in baculovirus-infected Sf-9 cells and purified as described previously. Liu et al., Nat Commun 4, 1888 (2013). The compound A18 or A0 was obtained from NCI. The purified IL-17RA protein (final concentration at 1 uM) was mixed with various concentrations of compound A0 in the solution consisting of 20 mM Tris, pH 7.5, 150 mM NaCl, and 5% DMSO in a 96-well black flat-bottom microplate (Greiner Bio-One). The reaction mixtures were incubated at room temperature at 120 rpm for 10 min, and fluorescence intensity was measured on a 2300 EnSpire Multimode Plate Reader (PerkinElmer) with excitation (265 nm) and emission (336 nm) wavelengths for A18 or with excitation (240 nm) and emission (337 nm) wavelengths for A0. The fluorescence signal (relative fluorescence intensity) was obtained by subtracting the background fluorescence of buffer and compound A0, and plotted as a function of the concentration of compound A0. The fluorescence quenching was observed as a consequence of the protein-ligand interaction at dose-dependent concentrations of compound A0, and the binding constant of compound A0 to IL-17RA was estimated by one-site total binding fit model (GraphPad Prism).

psoriasis = conditions: patients; cited from earlier work
multiple sclerosis = conditions: 6-month, placebo-controlled trial, 73 patients; cited from earlier work
[4] = read-out: IC50, IL-17A-IL-17RA binding inhibition assay
[5] = read-out: IC50, IL-17A-IL-17RA binding assay

Oc1cc(O)c2c(c1)O[C@@H](c1ccc(O)c(O)c1)[C@H](O)C2 [A0, (2S,3R)-2-(3,4-dihydroxyphenyl)-3,4-dihydro-2H-chromene-3,5,7-triol]
IL-17A-mediated CXCL1 production (A549 cells): greatly inhibited | IC50 (IL-17A-IL-17RA binding; [4]): 956 nM | Inhibition of IL-17A-IL-17RA binding (IL-17A-IL-17RA binding): excellent inhibition efficacy; also recorded: great inhibition efficacy | IL-17F-induced gene expression [1]: able to block | IL-17A-mediated CXCL1 production [2]: greatly inhibited | Binding constant to IL-17RA [3]: in the same range as A18

Oc1ccc2cc(O)c(-c3ccc(O)c(O)c3)[o+]c2c1 [A18Δ5OH]
IC50 (IL-17A-IL-17RA binding; [5]): > 30000 nM

OC[C@H]1O[C@@H](Oc2cc3c(O)cc(O)cc3[o+]c2-c2ccc(O)c(O)c2)[C@H](O)[C@@H](O)[C@@H]1O [cyanidin-3-O-glucoside, reference compound]
IC50 (IL-17A-IL-17RA binding; [4]): 96.4 nM

Oc1cc(O)c2ccc(-c3ccc(O)c(O)c3)[o+]c2c1 [luteolinidin, reference compound]
IC50 (IL-17A-IL-17RA binding; [4]): 198 nM

Oc1ccc(-c2[o+]c3cc(O)cc(O)c3cc2O)cc1 [pelargonidin, reference compound]
IC50 (IL-17A-IL-17RA binding; [5]): > 100000 nM

O=C(O)c1ccc(O)c(O)c1 [photocatechuic acid, reference compound]
Inhibition of IL-17A-IL-17RA binding (IL-17A-IL-17RA binding): greatly reduced inhibitory activity

secukinumab: Anti-IL17A antibody (Cosentyx/secukinumab from Novartis)
Efficacy for psoriasis (psoriasis): extreme efficacy | Responding rate in psoriasis (psoriasis): greater than 85% | MS-type brain lesions (multiple sclerosis): significantly lowered | Relapse rates (multiple sclerosis): trend toward reduced
